In article PMC7961587, “Novel Cell Permeable Polymers of N-Substituted L-2,3-Diaminopropionic Acid (DAPEGs) and Cellular Consequences of Their Interactions with Nucleic Acids” (International Journal of Molecular Sciences, 2021):

What was measured:
HB2 and MDA-MB-231 cells [1] = assay: Cytotoxicity assay CCK-8; type: cell-based, human; settings: CCK8, Figure S5; 1–100 µM; 2 h or 24 h
Procedure: Cell viability against cell-penetrating peptidomimetics was detected using the cell counting kit-8 (CCK-8) assay (Sigma Aldrich, Poznan, Poland). The HB2 and MDA-MB-231 cells were seeded into 96-well plates at a density of 5 × 10^3/well and 7 × 10^3/well, respectively, and incubated in complete medium (100 µL/well) for 48 h. Then, the medium was replaced with fresh medium (100 µL/well), and solutions of compounds at various concentrations (1, 5, 10, 20, 50, and 100 µM) were added; the cells were incubated for 2 h or 24 h. Cells incubated in media without any additives were used as control. After incubation, 10 µL/well of 2-(2-methoxy-4-nitrophenyl)-3-(4-nitrophenyl)-5-(2,4-disulfophenyl)-2H-tetrazolium, monosodium salt (WST-8) reagent was added according to the manufacturers’ instructions, and the mixture was incubated at 37 °C for 4 h. Cell viability was analyzed on the basis of formazan absorbance using a microplate reader (SPECTROstar Nano, BMG LABTECH, Ortenberg, Germany) at 450 nm.
Table 1S. Minimal charge to ratio (N/P) of each compoun d for efficient complexation with
DNA. *minimal N/P ratio resulting in effective complex formation based on EMSA. **ND ‐
No Sequence Minimal N/P ratio*
9 O2Oc‐[Dap(HO2)]6‐O2Oc‐NH2 No binding
Figure 5S. CCK8 cytotoxicity assay performed for three compounds (5, 13, and 14). Two
different cell lines were used: A) HB‐2 and B) MDA‐MB‐231 […]

HB2 and MDA-MB-231 cells [2] = assay: Transfection with pmaxGFP plasmid and cytotoxicity of plasmid:compound complexes; type: cell-based, human; settings: pmaxGFP:compound complex 4.62 × 10^−10 M
Description: Figure 10 (A) Fluorescence imaging of HB-2 and MDA-MB-231 cells transfected with pmaxGFP plasmid mixed with compounds 5, 13, 14, or the commercially available transfection reagent (control). (B) Cytotoxicity of plasmid pmaxGFP:compound complex in HB2 and MDA-MB-231 cells at the concentration of the complex equal to 4.62 × 10^−10 M.
In this experiment, second-generation compounds (compounds 5, 13, and 14) were used as transfection reagents. See transfection procedure in methodology below. After gene expression, the medium was removed and cells were lysed with 0.5 M NaOH (100 µL/well), and the fluorescence intensity was analyzed using a microplate reader at excitation and emission wavelengths of 488 and 510 nm, respectively.
In this experiment, second-generation (GO2)n compounds (compounds 5, 13, and 14) were used as transfection reagents. HB2 and MDA-MB-231 were seeded in 96-well plates at a density of 5 × 10^3/well and 7 × 10^3/well in complete medium and grown until 60–70% confluency. […] The DNA concentration was determined using UV readout at 260/280 nm. […] Results were observed by fluorescence microscopy.

## N=C(N)NCCOCCOCC(=O)NC[C@H](NC(=O)COCCOCCN)C(=O)N[C@@H](CNC(=O)COCCOCCNC(=N)N)C(=O)N[C@@H](CNC(=O)COCCOCCNC(=N)N)C(=O)N[C@@H](CNC(=O)COCCOCCNC(=N)N)C(=O)N[C@@H](CNC(=O)COCCOCCNC(=N)N)C(=O)N[C@@H](CNC(=O)COCCOCCNC(=N)N)C(=O)N[C@@H](CNC(=O)COCCOCCNC(=N)N)C(=O)N[C@@H](CNC(=O)COCCOCCNC(=N)N)C(=O)NCCOCCOCC(N)=O [compound 14, O2Oc-[Dap(GO2)]8-O2Oc-NH2]
HB2 and MDA-MB-231 cells [1]
  Cytotoxicity (CCK-8), in words: low cytotoxicity
HB2 and MDA-MB-231 cells [2]
  Post-transfection cytotoxicity: 30%
